Read-outs that look alike come from different tables or passages of the source.
What was measured:
healthy human eyes = details: dose of 5 μg, cited from earlier work
eye of white rabbits = assay: Incidence of conjunctival hyperemia after single ocular administration; details: 50 μg eye drop, once to one eye, two hours after the administration
Experimental: The presence of conjunctival hyperemia was examined at two hours after the administration and the ratio of cases showing conjunctival hyperemia was evaluated by percent in each group.

monkey eyes [1] = details: dose of 3 μg; cited from earlier work
monkey eyes [2] = assay: Effects on IOP in monkey eyes (applanation pneumatonometer); type: in vivo, cynomolgus monkeys; details: 15 μg/eye
Experimental: (§1) Nine male cynomolgus monkeys (body weights of animals ranged between 3.2 and 5.4 kg) without abnormalities in the anterior segment of the eye were used.
(§2) The left eye received an equal volume of the vehicle.
Intraocular pressure (IOP) measurements were conducted by means of an applanation pneumatonometer (Model 30 Classic™, Mentor O & O, Inc., USA) immediately before the administration (0-hour), and at 2, 4, 8, 12, 24, 28, and 32 hours after the administration.

[3] = system: eye of healthy volunteers; assay: Intraocular pressure lowering effect in healthy volunteers (applanation tonometer); type: in vivo, human; details: for Intraocular pressure lowering effect (difference in IOP between test eye and control eye): 12 μg/eye; for lowered the IOP by, as compared with the control eye: 12 μg
Experimental: The vehicle solution was ocularly administered to the contralateral eye (control eye). Intraocular pressure (IOP) was measured by means of an applanation tonometer before, and 4, 6, and 12 hours after the administration. The IOP lowering effect of the test compound was evaluated based on difference in IOP between test eye and the control eye at each time point of IOP measurement.

monkey eyes [4] = assay: Eye irritancy scoring in monkeys (criteria based on Draize test); type: in vivo, cynomolgus monkeys; set-up: key to Eye irritancy (Score) Conjunctivae Chemosis: 0: No swelling; 1: Any swelling above normal (includes nictitating membrane); 2: Obvious swelling with partial eversion of the lids; 3: Swelling with lids about half closed; 4: Swelling with lids about half closed to completely closed; details: 15 μg/eye
From the text: as §1, §2
Eye irritancy was scored according to the criteria presented in Table 4 at the same time points as IOP measurements. These criteria are based on those of Draize test.

eye of Dutch rabbits = assay: 13-week repeated ocular administration, irritable response in cornea, conjunctiva or iris; type: in vivo
Experimental: The administration was performed 4 times a day with 2-hour intervals for 13 weeks. The cornea, conjunctiva and iris were observed about occurrence of irritable response before, and 4, 8, and 13 weeks after the initiation of the administration. The observation was performed within the time from 0.5 hour to 2 hours after the last administration of the day. The cornea was observed about a presence of opacity and its area in the cornea. The conjunctiva was observed about occurrence of hyperemia, redness and swelling. The iris was observed about occurrence of hyperemia, congestion, swelling and hemorrhage. The ratio of cases showing irritable response in the cornea, conjunctiva or iris was evaluated by percent in the group.

monkey eyes [5] = details: 50 μg per eye; cited from earlier work

## CC(C)OC(=O)CCC/C=C\C[C@@H]1[C@@H](CCC(=O)CCc2ccccc2)[C@H](O)C[C@@H]1O [13,14-dihydro-15-keto-17-phenyl-18,19,20-trinor-PGF2α isopropyl ester]
Healthy human eyes; healthy human eyes
  intraocular pressure reducing effects: showed intraocular pressure reducing effects
Healthy human eyes; in the human
  side effect such as conjunctival hyperemia, ocular irritation and foreign body sensation: no side effect
Eye of white rabbits
  Incidence Rate of Conjunctival Hyperemia: 33%
Monkey eyes [1]
  intraocular pressure reducing effects: showed intraocular pressure reducing effects
Monkey eyes [2]; 0 hr (immediately before administration), right eye, Mean ± SE
  IOP: 19.7 ± 0.6 mmHg
Monkey eyes [2]; topical
  IOP reduction: significant IOP reduction
[3]; 4 hours after administration
  Intraocular pressure lowering effect (difference in IOP between test eye and control eye): −1.0 mmHg
[3]; 4 hours after the administration
  lowered the IOP by, as compared with the control eye: 1.0 mmHg
[3]; 6 hours after administration
  Intraocular pressure lowering effect (difference in IOP between test eye and control eye): −0.8 mmHg
[3]; 6 hours after the administration
  lowered the IOP by, as compared with the control eye: 0.8 mmHg
[3]; 12 hours after administration
  Intraocular pressure lowering effect (difference in IOP between test eye and control eye): −1.1 mmHg
[3]; 12 hours after the administration
  lowered the IOP by, as compared with the control eye: 1.1 mmHg
Monkey eyes [4]; 2 hr after administration
  Eye irritancy (Score) Conjunctivae Chemosis: 0
Monkey eyes [4]; 4 hr after administration
  Eye irritancy (Score) Conjunctivae Chemosis: 0
Monkey eyes [4]; 8 hr after administration
  Eye irritancy (Score) Conjunctivae Chemosis: 0
Monkey eyes [4]; 12 hr after administration
  Eye irritancy (Score) Conjunctivae Chemosis: 0
Monkey eyes [4]; 24 hr after administration
  Eye irritancy (Score) Conjunctivae Chemosis: 0
Monkey eyes [4]; 28 hr after administration
  Eye irritancy (Score) Conjunctivae Chemosis: 0
Monkey eyes [4]; 32 hr after administration
  Eye irritancy (Score) Conjunctivae Chemosis: 0
Monkey eyes [4]; Before administration
  Eye irritancy (Score) Conjunctivae Chemosis: 0
Monkey eyes [4]; after topical administration
  signs or symptoms of ocular irritation: no signs or symptoms
Eye of Dutch rabbits; 30 μg/eye each 4 times a day for 13 weeks
  effect on the cornea, conjunctiva and iris: no effect
Eye of Dutch rabbits; 4 weeks after initiation, 30 μg/eye 4 times/day
  Incidence rate of ocular irritation: 0%
Eye of Dutch rabbits; 8 weeks after initiation, 30 μg/eye 4 times/day
  Incidence rate of ocular irritation: 0%
Eye of Dutch rabbits; 13 weeks after initiation, 30 μg/eye 4 times/day
  Incidence rate of ocular irritation: 0%
Eye of Dutch rabbits; Pre (before initiation of administration)
  Incidence rate of ocular irritation: 0%
Monkey eyes [5]
  intraocular pressure reducing effects: showed intraocular pressure reducing effects

— patent publication US20040254247A1, “Method and composition for treatnment of ocular hypertension and glaucoma” (priority 2001, published 2004)
